Data published in US20230310421A1, “MOLECULES FOR USE IN THE TREATMENT OF VIRAL INFECTIONS” (priority 2020, published 2023).

Assays:
MHV-A59 = test: Direct (intrinsic) antiviral activity: survival, titer and syncitia formation in L929, BMDMs and LA4 cells; assay type: cell-based, Murine Hepatitis Virus
L929 cells = test: Macrophage extrinsic cytotoxic activity (ECT): supernatant of MHV-infected BMDM on L929 cells, CellTiter-Glo / live imaging; settings: L929 cells exposed to supernatant from MOI 0.1-infected BMDM

Compound | intrinsic antiviral activity (MHV-A59; drug applied directly on infected L929 cells) | effect on DDP rescue of cell viability of infected L929 cells (MHV-A59) | effect on ECT (viability in uninfected cells) (L929 cells)
N[C@H]1CC[C@H](N[C@@H]2C[C@H]2c2ccccc2)CC1 [Ory1001] | elicited intrinsic antiviral activity |  | 
JAK inhibitor I |  | No effect | no effect
